According to ChEMBL document CHEMBL3885881, “DrugMatrix”:

Organism: Rattus norvegicus
Experiment: DrugMatrix - Regimen: Daily Repeat
Assay type: toxicity, organism-based, Sprague-Dawley
Parameters: regimen Daily Repeat, gender Male, age 6-8 weeks
Conditions: in vivo, po, route oral GAVAGE, […]; for ABSOLUTE BASOPHIL / ABSOLUTE EOSINOPHIL / ABSOLUTE LYMPHOCYTE / ABSOLUTE MONOCYTE / ABSOLUTE SEGMENTED NEUTROPHIL / BASOPHIL / EOSINOPHIL / ERYTHROCYTE COUNT / HEMATOCRIT / HEMOGLOBIN / LEUKOCYTE COUNT / LYMPHOCYTE / MEAN CORPUSCULAR HEMOGLOBIN / MEAN CORPUSCULAR HEMOGLOBIN CONCENTRATION / MEAN CORPUSCULAR VOLUME / MONOCYTE / NEUTROPHIL / NUCLEATED RED BLOOD CELLS / PLATELET COUNT: tissue Blood; for ALANINE AMINOTRANSFERASE / ALBUMIN / ALKALINE PHOSPHATASE / ASPARTATE AMINOTRANSFERASE / BLOOD UREA NITROGEN / CARBON DIOXIDE / CHLORIDE / CHOLESTEROL / CREATINE PHOSPHOKINASE / CREATININE / GLUCOSE / LACTATE DEHYDROGENASE / LIPASE / PHOSPHORUS / POTASSIUM / SODIUM / TOTAL BILIRUBIN / TOTAL PROTEIN / URIC ACID: tissue Plasma
[1] = 0 mg/kg, 72 h, dose level Control, time 3 day
[2] = 0 mg/kg, 120 h, dose level Control, time 5 day
[3] = 67 mg/kg, 72 h, dose level Low, time 3 day
[4] = 67 mg/kg, 120 h, dose level Low, time 5 day

For `Cc1cccc(C)c1NC(=O)C(C)N` (stereo unspecified) [TOCAINIDE], the “ABSOLUTE BASOPHIL” value [1] was 0 CELLS/uL, the “ABSOLUTE EOSINOPHIL” value [1] was 41.83 CELLS/uL and the “ABSOLUTE LYMPHOCYTE” value [1] was 8545.5 CELLS/uL. For the same compound, the “ABSOLUTE MONOCYTE” value [1] was 240 CELLS/uL, the “ABSOLUTE SEGMENTED NEUTROPHIL” value [1] was 906 CELLS/uL and the BASOPHIL [1] was 0%. For the same compound, the EOSINOPHIL [1] was 0.33%, the “ERYTHROCYTE COUNT” value [1] was 5.6 x10E6/uL and the HEMATOCRIT [1] was 35.4%. The HEMOGLOBIN [1] was 13.42 G/DL, the “LEUKOCYTE COUNT” value [1] was 9.73 x10E3/uL and the LYMPHOCYTE [1] was 87.83%. For the same compound, the “MEAN CORPUSCULAR HEMOGLOBIN” value [1] was 23.98 pg, the “MEAN CORPUSCULAR HEMOGLOBIN CONCENTRATION” value [1] was 37.92 G/DL and the “MEAN CORPUSCULAR VOLUME” value [1] was 63.3 fL. The MONOCYTE [1] was 2.5%, the NEUTROPHIL [1] was 9.33% and the “NUCLEATED RED BLOOD CELLS” value [1] was 0 /100WBC. For the same compound, the “PLATELET COUNT” value [1] was 1032 x10E3/uL, the “ALANINE AMINOTRANSFERASE” value [1] was 72.83 u/L and the ALBUMIN [1] was 4 G/DL. For the same compound, the “ALKALINE PHOSPHATASE” value [1] was 322.83 u/L, the “ASPARTATE AMINOTRANSFERASE” value [1] was 102.67 u/L and the “BLOOD UREA NITROGEN” value [1] was 12 mg/dL. For the same compound, the “CARBON DIOXIDE” value [1] was 34.33 mmol/L, the CHLORIDE [1] was 97.67 MEQ/L and the CHOLESTEROL [1] was 82.5 mg/dL. The “CREATINE PHOSPHOKINASE” value [1] was 410.33 u/L, the CREATININE [1] was 0.18 mg/dL and the GLUCOSE [1] was 164.5 mg/dL. The “LACTATE DEHYDROGENASE” value [1] was 119.5 u/L, the LIPASE [1] was 11.83 u/L and the PHOSPHORUS [1] was 9.52 mg/dL. The POTASSIUM [1] was 5.56 MEQ/L, the SODIUM [1] was 142.48 MEQ/L and the “TOTAL BILIRUBIN” value [1] was 0.18 mg/dL. The “TOTAL PROTEIN” value [1] was 5.77 G/DL, the “URIC ACID” value [1] was 0.48 mg/dL and the “ABSOLUTE BASOPHIL” value [2] was 0 CELLS/uL. For the same compound, the “ABSOLUTE EOSINOPHIL” value [2] was 0 CELLS/uL, the “ABSOLUTE LYMPHOCYTE” value [2] was 9065 CELLS/uL and the “ABSOLUTE MONOCYTE” value [2] was 341.33 CELLS/uL. The “ABSOLUTE SEGMENTED NEUTROPHIL” value [2] was 527 CELLS/uL, the BASOPHIL [2] was 0% and the EOSINOPHIL [2] was 0%. The “ERYTHROCYTE COUNT” value [2] was 5.25 x10E6/uL, the HEMATOCRIT [2] was 34.08% and the HEMOGLOBIN [2] was 13.5 G/DL. For the same compound, the “LEUKOCYTE COUNT” value [2] was 9.93 x10E3/uL, the LYMPHOCYTE [2] was 91.17% and the “MEAN CORPUSCULAR HEMOGLOBIN” value [2] was 25.7 pg. The “MEAN CORPUSCULAR HEMOGLOBIN CONCENTRATION” value [2] was 39.62 G/DL, the “MEAN CORPUSCULAR VOLUME” value [2] was 64.93 fL and the MONOCYTE [2] was 3.33%. For the same compound, the NEUTROPHIL [2] was 5.5%, the “NUCLEATED RED BLOOD CELLS” value [2] was 0 /100WBC and the “PLATELET COUNT” value [2] was 1077.5 x10E3/uL. The “ALANINE AMINOTRANSFERASE” value [2] was 57.83 u/L, the ALBUMIN [2] was 4.07 G/DL and the “ALKALINE PHOSPHATASE” value [2] was 319.17 u/L. The “ASPARTATE AMINOTRANSFERASE” value [2] was 83.33 u/L, the “BLOOD UREA NITROGEN” value [2] was 13.67 mg/dL and the “CARBON DIOXIDE” value [2] was 30.83 mmol/L. The CHLORIDE [2] was 98.33 MEQ/L, the CHOLESTEROL [2] was 64.83 mg/dL and the “CREATINE PHOSPHOKINASE” value [2] was 263.67 u/L. The CREATININE [2] was 0.2 mg/dL, the GLUCOSE [2] was 182.83 mg/dL and the “LACTATE DEHYDROGENASE” value [2] was 124 u/L. It also gave an LIPASE [2] of 10.5 u/L, a PHOSPHORUS [2] of 10 mg/dL and a POTASSIUM [2] of 5.78 MEQ/L. The SODIUM [2] was 142.48 MEQ/L, the “TOTAL BILIRUBIN” value [2] was 0.2 mg/dL and the “TOTAL PROTEIN” value [2] was 6 G/DL. For the same compound, the “URIC ACID” value [2] was 0.7 mg/dL, the “ABSOLUTE BASOPHIL” value [3] was 0 CELLS/uL and the “ABSOLUTE EOSINOPHIL” value [3] was 83.33 CELLS/uL. The “ABSOLUTE LYMPHOCYTE” value [3] was 10800 CELLS/uL, the “ABSOLUTE MONOCYTE” value [3] was 251.33 CELLS/uL and the “ABSOLUTE SEGMENTED NEUTROPHIL” value [3] was 1265.33 CELLS/uL. For the same compound, the BASOPHIL [3] was 0%, the EOSINOPHIL [3] was 0.67% and the “ERYTHROCYTE COUNT” value [3] was 5.15 x10E6/uL. The HEMATOCRIT [3] was 32.47%, the HEMOGLOBIN [3] was 12.83 G/DL and the “LEUKOCYTE COUNT” value [3] was 12.4 x10E3/uL. For the same compound, the LYMPHOCYTE [3] was 86.67%, the “MEAN CORPUSCULAR HEMOGLOBIN” value [3] was 24.97 pg and the “MEAN CORPUSCULAR HEMOGLOBIN CONCENTRATION” value [3] was 39.5 G/DL. The “MEAN CORPUSCULAR VOLUME” value [3] was 63.07 fL, the MONOCYTE [3] was 2.33% and the NEUTROPHIL [3] was 10.33%. For the same compound, the “NUCLEATED RED BLOOD CELLS” value [3] was 0 /100WBC, the “PLATELET COUNT” value [3] was 980 x10E3/uL and the “ALANINE AMINOTRANSFERASE” value [3] was 64 u/L. The ALBUMIN [3] was 3.83 G/DL, the “ALKALINE PHOSPHATASE” value [3] was 379.67 u/L and the “ASPARTATE AMINOTRANSFERASE” value [3] was 79.67 u/L. The “BLOOD UREA NITROGEN” value [3] was 12.33 mg/dL, the “CARBON DIOXIDE” value [3] was 26 mmol/L and the CHLORIDE [3] was 101 MEQ/L. The CHOLESTEROL [3] was 69.33 mg/dL, the “CREATINE PHOSPHOKINASE” value [3] was 212.67 u/L and the CREATININE [3] was 0.29 mg/dL. The GLUCOSE [3] was 163 mg/dL, the “LACTATE DEHYDROGENASE” value [3] was 145.67 u/L and the LIPASE [3] was 16 u/L. The PHOSPHORUS [3] was 10.33 mg/dL, the POTASSIUM [3] was 5.62 MEQ/L and the SODIUM [3] was 142.37 MEQ/L. The “TOTAL BILIRUBIN” value [3] was 0.2 mg/dL, the “TOTAL PROTEIN” value [3] was 5.4 G/DL and the “URIC ACID” value [3] was 0.83 mg/dL. The “ABSOLUTE BASOPHIL” value [4] was 0 CELLS/uL, the “ABSOLUTE EOSINOPHIL” value [4] was 0 CELLS/uL and the “ABSOLUTE LYMPHOCYTE” value [4] was 9456 CELLS/uL. For the same compound, the “ABSOLUTE MONOCYTE” value [4] was 276.33 CELLS/uL, the “ABSOLUTE SEGMENTED NEUTROPHIL” value [4] was 701 CELLS/uL and the BASOPHIL [4] was 0%. For the same compound, the EOSINOPHIL [4] was 0%, the “ERYTHROCYTE COUNT” value [4] was 5.11 x10E6/uL and the HEMATOCRIT [4] was 34.43%. The HEMOGLOBIN [4] was 13.2 G/DL, the “LEUKOCYTE COUNT” value [4] was 10.43 x10E3/uL and the LYMPHOCYTE [4] was 90.67%. The “MEAN CORPUSCULAR HEMOGLOBIN” value [4] was 25.9 pg, the “MEAN CORPUSCULAR HEMOGLOBIN CONCENTRATION” value [4] was 38.37 G/DL and the “MEAN CORPUSCULAR VOLUME” value [4] was 67.47 fL. The MONOCYTE [4] was 2.67%, the NEUTROPHIL [4] was 6.67% and the “NUCLEATED RED BLOOD CELLS” value [4] was 0 /100WBC. For the same compound, the “PLATELET COUNT” value [4] was 1124 x10E3/uL, the “ALANINE AMINOTRANSFERASE” value [4] was 58.33 u/L and the ALBUMIN [4] was 4.1 G/DL. For the same compound, the “ALKALINE PHOSPHATASE” value [4] was 361 u/L, the “ASPARTATE AMINOTRANSFERASE” value [4] was 79.67 u/L and the “BLOOD UREA NITROGEN” value [4] was 10.67 mg/dL. For the same compound, the “CARBON DIOXIDE” value [4] was 30.67 mmol/L, the CHLORIDE [4] was 95 MEQ/L and the CHOLESTEROL [4] was 65.67 mg/dL. The CREATININE [4] was 0.16 mg/dL, the GLUCOSE [4] was 174.33 mg/dL and the “LACTATE DEHYDROGENASE” value [4] was 154.67 u/L. For the same compound, the LIPASE [4] was 9.67 u/L, the PHOSPHORUS [4] was 10.87 mg/dL and the POTASSIUM [4] was 5.33 MEQ/L. The SODIUM [4] was 137.97 MEQ/L, the “TOTAL BILIRUBIN” value [4] was 0.17 mg/dL and the “TOTAL PROTEIN” value [4] was 5.97 G/DL. For the same compound, the “URIC ACID” value [4] was 0.7 mg/dL.
